In ChEMBL document CHEMBL1148936, “Benzoic acid derivatives from Piper species and their fungitoxic activity against Cladosporium cladosporioides and C. sphaerospermum” (2004):
The source made the active and inactive calls. The calls are words filed in the database; no cut-off is given here.

What was measured:
[1] = system: Cladosporium cladosporioides; assay: Antifungal activity against Cladosporium cladosporioides assessed as minimum concentration required to inhibit growth after 72 hrs by TLC; format: functional
[2] = system: Cladosporium sphaerospermum; assay: Antifungal activity against Cladosporium sphaerospermum assessed as minimum concentration required to inhibit growth after 72 hrs by TLC; format: functional
[3] = system: Cladosporium sphaerospermum; assay: Antifungal activity against Cladosporium sphaerospermum at 100 ug after 72 hrs by TLC; format: functional, organism-based
[4] = system: Cladosporium cladosporioides; assay: Antifungal activity against Cladosporium cladosporioides at 100 ug after 72 hrs by TLC; format: functional, organism-based

Row | Molecule | Activity [1] [µg] | Activity [2] [µg] | Activity [3] | Activity [4]
1 | CC1(C)C=Cc2cc(C(=O)O)ccc2O1 | 5 | 5 | – | –
2 | COc1ccc(C(=O)O)cc1C/C=C(\C)CCC=C(C)C | – | – | inactive | inactive
3 | C=C(C)C(O)Cc1cc(C(=O)OC)ccc1O (configuration not stated) | 5 | 5 | – | –
4 | COC(=O)c1ccc2c(c1)C=CC(C)(C)O2 | 5 | 5 | – | –
5 | COc1cc(CCC(=O)O)cc(OC)c1OC | 10 | 10 | – | –
6 | COC(=O)c1cc2c(c(CC=C(C)C)c1)OC(C)(C)C=C2 | 0.1 | 0.1 | – | –
7 | CC(C)=CCC[C@@]1(C)C=Cc2cc(C(=O)O)cc(CC=C(C)C)c2O1 | 10 | 10 | – | –
8 | COc1cc(O)c2c(c1)O[C@H](c1ccc(O)cc1)CC2=O [SAKURANETIN] | 1 | 1 | – | –
9 | Clc1ccc(COC(Cn2ccnc2)c2ccc(Cl)cc2Cl)c(Cl)c1 (configuration not stated) [MICONAZOLE] | 1 | 1 | – | –
10 | COC(=O)c1ccc(O)c([C@@H]2c3c(OC)cc(O)c(C(=O)CCc4ccccc4)c3O[C@H]2C(C)(C)O)c1 | – | – | inactive | inactive
11 | NYSTATIN | 1 | 1 | – | –
12 | COc1cc(O)c(C(=O)CCc2ccccc2)c(O)c1 | – | – | inactive | inactive
13 | COC(=O)c1cc(C(=O)C=C(C)C)ccc1OC [ADUNCUMENE] | 5 | 5 | – | –
14 | COC(=O)c1ccc(O)c(CC(O)C(C)(C)O)c1 (configuration not stated) [HOSTMANIANE] | 0.5 | 0.5 | – | –
15 | COC(=O)c1ccc(O)c(C(=O)C=C(C)C)c1 | – | – | inactive | inactive
16 | CC(C)=CCC/C(C)=C/Cc1cc(C(=O)O)ccc1O | 5 | 5 | – | –
17 | COC(=O)c1ccc(O)c(CC=C(C)C)c1 | 1 | 1 | – | –
18 | O=C1C[C@@H](c2ccccc2)Oc2cc(O)cc(O)c21 [PINOCEMBRIN] | 1 | 1 | – | –
19 | COC(=O)c1cc(O)c2c(c1)C=CC(C)(C)O2 | 5 | 5 | – | –
20 | CC(C)=CCCC(C)(O)CC(=O)c1cc(C(=O)O)ccc1O (configuration not stated) [CRASSINERVIC ACID] | 0.5 | 0.5 | – | –
21 | CC(C)=CCC/C(C)=C/C(=O)c1cc(O)ccc1O | 1 | 1 | – | –
